The record followed here is patent US20180296639A1, “THERAPEUTIC PEPTIDES” (Hoffmann-La Roche Inc., priority 2015, published 2018).

Test [1] relates to human retinal pericytes (hRP). Put plainly: Apoptosis measurement by caspase-3 enzymatic activity in hRP. Format: cell-based. The following applies: 25 mM D-glucose for 72 hrs. The protocol:
HRP were treated with normal glucose, L-glucose or high glucose for 48 hrs-72 hrs. […] Furthermore, GAPDH and Siah1 blocking peptides inhibited high glucose-induced hRP apoptosis (FIG. 5D Control Peptide p=0.0019, GAPDH peptide p=0.0090, Siah1 peptide p=0.0053).
(§1) HRP Treatment: Primary cultures of human retinal pericytes (hRP) (Cell Systems; Kirkland, Wash.) were seeded into tissue culture flasks coated with attachment factor (Cell Signaling; Danvers, Mass.). HRP were grown and cultured in Dulbecco's modified Eagle's medium normal glucose (5.5 mM DMEM 1×, Life Technologies; Carlsbad, Calif.) supplemented with 10% FBS, and cell growth supplements, including antibiotics (Lonza; Basel). All cultures were incubated at 37° C., 5% CO2 and 95% relative humidity (20.9% oxygen). Passages 5 to 7 were used for all experiments. HRP identity was confirmed by immunoreactivity of neuron glial 2 (NG2) (EMD Millipore; Temecula, Calif.). […] A FLAG tag peptide sequence enables detection and quantification of these peptides (FIG. 12).
Apoptosis Measurements: All apoptosis measurements were taken after 72 hrs of appropriate treatment. […] Samples were quantified using flow cytometry analysis performed at Vanderbilt's Flow Cytometry Shared Resource core laboratory. […] Activity was quantified using the EnzChek Caspase-3 Assay Kit (Life Technologies). […] Fluorescence emission at 440 nm was measured 2 hrs later.

The target in a further test is T1, GAPDH/Siah1 association (Homo sapiens, UniProt P04406+Q8IUQ4).
T1 construct: immunoprecipitation (IP) with anti-Siah1, followed by western blot (WB) analysis of the immuno-complexes with anti-GAPDH; endogenous in cells; host or cells: primary human retinal pericytes (hRP), Cell Systems
T1 sequence (Q8IUQ4 whole entry): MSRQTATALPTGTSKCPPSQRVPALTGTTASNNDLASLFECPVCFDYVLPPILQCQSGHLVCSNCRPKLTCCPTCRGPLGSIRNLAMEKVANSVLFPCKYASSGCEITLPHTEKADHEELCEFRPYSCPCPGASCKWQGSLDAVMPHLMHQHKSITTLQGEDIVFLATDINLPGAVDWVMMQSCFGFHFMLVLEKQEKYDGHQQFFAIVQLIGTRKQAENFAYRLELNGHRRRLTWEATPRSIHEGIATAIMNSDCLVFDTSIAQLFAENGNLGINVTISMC
T1 sequence (P04406 2-335 limits assumed): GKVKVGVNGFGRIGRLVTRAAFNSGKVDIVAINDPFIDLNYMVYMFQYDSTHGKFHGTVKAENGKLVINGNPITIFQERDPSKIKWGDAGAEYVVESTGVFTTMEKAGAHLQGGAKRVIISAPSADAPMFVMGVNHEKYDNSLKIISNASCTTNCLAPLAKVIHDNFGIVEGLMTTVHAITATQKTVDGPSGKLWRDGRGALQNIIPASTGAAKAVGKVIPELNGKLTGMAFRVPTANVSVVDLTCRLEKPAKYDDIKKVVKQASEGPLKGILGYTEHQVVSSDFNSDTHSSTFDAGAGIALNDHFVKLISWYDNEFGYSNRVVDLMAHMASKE
In words: Co-immunoprecipitation (pull down) of GAPDH/Siah1 association in hRP. Format: cell-based. The following applies: high glucose 25 mM 48 hrs vs L-glucose 25 mM. The protocol:
HRP were treated with normal glucose (5 mM), high glucose (25 mM) or L-glucose (25 mM) for 48 hrs.
HRP were treated with normal, osmotic control or high glucose plus 10 μM negative control siRNA, 10 μM Siah1-directed siRNA, 1 μM TAT-FLAG Control, 1 μM TAT-FLAG GAPDH peptide, 1 μM TAT-FLAG Siah1 peptide or 1 μM GAPDH+1 μM Siah1 peptides. Pull down assays were performed as described above. Our GAPDH peptide was designed to block the GAPDH binding site on Siah1 and the Siah1 peptide was designed to block the Siah1 binding site on GAPDH (Supplemental Table 1).
as §1, with “12). […]” for “12).”

The subject of a further test is Siah1. Put plainly: Siah1 total protein western blot in hRP. Format: cell-based, human. The following applies: 25 mM D-glucose 48 hrs vs 25 mM L-glucose. The protocol: HRP were treated with normal glucose (5 mM D-glucose), osmotic control (25 mM L-glucose) or high glucose (25 mM D-glucose) for 48 hrs. Siah1 total protein increased 2-fold in cultures treated with high glucose compared to those treated with the osmotic control (p=0.0136). There was no significant difference between osmotic control and normal glucose treated cells (FIG. 1A).
Nuclear Fractionation and Western Blot Analysis: HRP were treated as necessary. Cells were harvested using TrypLE Express (Life Technologies), and lysed using radioimmunoprecipitation assay (RIPA) buffer (Qiagen; Limburg, Netherlands). The NE-PER nuclear and cytoplasmic extraction reagents (Thermo Scientific; Nashville, Tenn.) were used to separate lysates into cytosolic and nuclear fractions. Samples were equilibrated for total protein concentration, subjected to 10% SDS/PAGE, and gels were transferred to nitrocellulose membranes using the iBlot system (Life Technologies). […] (β-actin was used to determine total protein concentration. Membranes were incubated in Pierce ECL western blotting substrate and developed using ChemiDoc MP (Bio-Rad; Hercules, Calif.). At least three independent experiments were used to generate western blot quantification graphs. Blots were quantified using the ImageJ 1.47v software.
For orientation: In western blotting, separated proteins are transferred to a membrane and probed.

On to `O=C[C@H](O)[C@@H](O)[C@H](O)[C@H](O)CO` [high glucose, D-glucose], for which the “increase in caspase-3-enzymatic activity” value in test [1] came out at 3 fold. Also, the “increase in GAPDH/Siah1 association vs osmotic control” value on GAPDH/Siah1 association worked out at 1.5 fold. In the test on Siah1, the “increase of Siah1 total protein vs osmotic control” value stood at 2 fold.
